Data on nine molecules can be found in article PMC7126937 (Bioorganic & Medicinal Chemistry, 2014).

The first test relates to influenza virus A/California/7/09 (H1N1)pdm09. The format is cell-based, influenza virus A/California/07/09 (H1N1)pdm09.
Settings: not given
As for `CC1(C)C2CC[C@@]1(C)C(=O)C2` [Compound 1, (1R)-(+)-camphor, reference compound], the “Antiviral (virus-inhibiting) activity, in words” value is reported as “does not possess a virus-inhibiting activity”.
Still for that read-out and setting: to `CC1(C)[C@@H]2CC[C@@]1(C)/C(=N/CCC/N=C1\C[C@H]3CC[C@]1(C)C3(C)C)C2` [Compound 2a, N^1E,N^3E-N^1,N^3-bis((1R,2R,4R)-1,7,7-trimethylbicyclo[2.2.1]heptan-2-ylidene)propane-1,3-diamine] belongs “highest antiviral activity”; to `CC1(C)[C@@H]2CC[C@@]1(C)/C(=N/CCCCCC/N=C1\C[C@H]3CC[C@]1(C)C3(C)C)C2` [Compound 2b, N^1E,N^6E-N^1,N^6-bis((1R,2R,4R)-1,7,7-trimethylbicyclo[2.2.1]heptan-2-ylidene)hexane-1,6-diamine], “highest antiviral activity”; to `CC1(C)[C@@H]2CC[C@@]1(C)/C(=N/CCCCCCC/N=C1\C[C@H]3CC[C@]1(C)C3(C)C)C2` [Compound 2c, N^1E,N^7E-N^1,N^7-bis((1R,2R,4R)-1,7,7-trimethylbicyclo[2.2.1]heptan-2-ylidene)heptane-1,7-diamine], “highest antiviral activity”.
On the same count and under the same terms, the entry for `CC1(C)[C@@H]2CC[C@@]1(C)/C(=N/CCCCCCCCCCCC/N=C1\C[C@H]3CC[C@]1(C)C3(C)C)C2` [Compound 2e, N^1E,N^12E-N^1,N^12-bis((1R,2R,4R)-1,7,7-trimethylbicyclo[2.2.1]heptan-2-ylidene)dodecane-1,12-diamine] is “highest antiviral activity”; for `CC1(C)[C@@H]2CC[C@@]1(C)/C(=N/c1ccc(Cc3ccc(/N=C4\C[C@H]5CC[C@]4(C)C5(C)C)cc3)cc1)C2` [Compound 2f, (E)-N-((1R,2R,4R)-1,7,7-trimethylbicyclo[2.2.1]heptan-2-ylidene)-4-(4-((E)-((1R,2R,4R)-1,7,7-trimethylbicyclo[2.2.1]heptan-2-ylidene)amino)benzyl)aniline] it is “did not exhibit high antiviral activity”; for `CC1(C)[C@@H]2CC[C@@]1(C)[C@H](Nc1ccc(Oc3ccc(N[C@@H]4C[C@H]5CC[C@]4(C)C5(C)C)cc3)cc1)C2` [Compound 3g, (1R,2R,4R)-1,7,7-trimethyl-N-(4-(4-((1R,2R,4R)-1,7,7-trimethylbicyclo[2.2.1]heptan-2-ylamino)phenoxy)phenyl)bicyclo[2.2.1]heptan-2-amine] it is “did not exhibit high antiviral activity”.
Still for that read-out and setting: the entry for `CC1(C)[C@@H]2CC[C@@]1(C)/C(=N/c1ccc(Cc3ccc(N)cc3)cc1)C2` [Compound 5f, (E)-4-(4-aminobenzyl)-N-((1R,2R,4R)-1,7,7-trimethylbicyclo[2.2.1]heptan-2-ylidene)aniline] is “did not exhibit high antiviral activity”.

The test system is the same in the next test. Particulars: cited from earlier work.
Regarding `NC(=O)c1ncn([C@@H]2O[C@H](CO)[C@@H](O)[C@H]2O)n1` [Ribavirin], the “ED50 (50% effective concentration)” value is 24.6 µM.
